Source: article PMC12297423, “Dual α-amylase and α-glucosidase inhibition by 1,2,4-triazole derivatives for diabetes treatment” (Scientific Reports, 2025)
Read-outs that look alike come from different tables or passages of the source.

What was measured:
[1] = tested on: Saccharomyces cerevisiae α-glucosidase; test: In vitro α-glucosidase inhibition assay (BioVision kit, pNPG); assay type: biochemical; conditions: for %inh α-glucosidase: Table 2S
Procedure: Using BioVision’s α-Glucosidase Inhibitor Screening Kit (Colorimetric) (Catalogue #K938-100) at (OD: 410 nm), the in vitro α-glucosidase suppression effect for the designed 1,2,4-triazole derivatives 3, 4, 6, 8, 9, and 10 was carried out. The results were analyzed on a multi-well spectrophotometer (ELISA reader) using a 96-well microplate in compliance with the manufacturer’s instructions as previously described[49],[50]. The α-glucosidase inhibition assay was conducted using Saccharomyces cerevisiae α-glucosidase (0.5–1 U/mL in phosphate buffer, pH 6.8). Test compounds (63–1000 µg/mL) were pre-incubated with the enzyme at 37 °C for 10 min, followed by addition of pNPG (5 mM) and further incubation for 30 min. The reaction was stopped with 0.2 M Na2CO3, and absorbance was measured at 405 nm. […] Inhibition (%) was calculated as above, and IC50 values were derived from nonlinear regression analysis Table 2S.

[2] = biological target: T1, porcine pancreatic α-amylase (Sus scrofa, UniProt P00690); test: In vitro α-amylase inhibition assay (BioVision kit / modified DNSA method); assay type: biochemical; conditions: for %inh α-amylase: Table 1S
T1 construct: purchased BioVision K482-100
T1 sequence (P00690 16-511): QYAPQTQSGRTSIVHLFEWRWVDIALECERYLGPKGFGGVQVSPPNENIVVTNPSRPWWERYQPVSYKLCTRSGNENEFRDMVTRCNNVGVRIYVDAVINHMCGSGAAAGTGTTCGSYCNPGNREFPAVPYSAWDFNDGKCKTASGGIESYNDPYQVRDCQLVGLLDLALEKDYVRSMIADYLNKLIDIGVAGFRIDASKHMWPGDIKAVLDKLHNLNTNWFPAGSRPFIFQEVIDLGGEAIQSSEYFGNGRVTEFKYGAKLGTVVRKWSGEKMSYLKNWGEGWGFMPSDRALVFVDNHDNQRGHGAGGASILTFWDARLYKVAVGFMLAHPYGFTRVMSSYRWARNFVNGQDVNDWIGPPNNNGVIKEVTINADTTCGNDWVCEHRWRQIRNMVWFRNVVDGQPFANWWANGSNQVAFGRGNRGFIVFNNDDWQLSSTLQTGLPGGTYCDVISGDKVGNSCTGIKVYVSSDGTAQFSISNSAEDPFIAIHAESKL
Procedure: The α-amylase inhibition assay was performed using a modified DNSA (3,5-dinitrosalicylic acid) method. Test compounds (dissolved in DMSO) were serially diluted (100, 10, 1, 0.1, and 0.01 µg/mL) and pre-incubated with porcine pancreatic α-amylase (0.5 U/mL in phosphate buffer, pH 6.8) at 37 °C for 10 min. Starch solution (1% w/v) was added, and the reaction proceeded for 30 min at 37 °C. The reaction was terminated by adding DNSA reagent, followed by heating at 85 °C for 10 min. Absorbance was measured at 540 nm using a microplate reader. […] The percentage inhibition was calculated as: [(Acontrol–Asample)/Acontrol] × 100, where Acontrol represents enzyme activity without inhibitor. IC50 values were determined from dose-response curves using GraphPad Prism. Kinetic parameters (KActivity) were derived from ∆RFU (Relative Fluorescence Units) and slope values Table 1S.

[3] = read-out: α-amylase inhibition IC50 (converted)
[4] = table printed in Fig. 9, read-out: α- Amylase IC50 (converted)

%inh α-glucosidase ([1]; conc 63 (µg/mL)) [%] | %inh α-glucosidase ([1]; conc 125 (µg/mL)) [%] | %inh α-glucosidase ([1]; conc 250 (µg/mL)) [%] | %inh α-glucosidase ([1]; conc 500 (µg/mL)) [%] | %inh α-glucosidase ([1]; conc 1000 (µg/mL)) [%] | α-glucosidase inhibition IC50 [1] [µg/mL] | %inh α-amylase ([2]; conc 0.01 (µg/mL)) [%] | %inh α-amylase ([2]; conc 0.1 (µg/mL)) [%] | %inh α-amylase ([2]; conc 1 (µg/mL)) [%] | %inh α-amylase ([2]; conc 10 (µg/mL)) [%] | %inh α-amylase ([2]; conc 100 (µg/mL)) [%] | IC50 [2, 3] [nM] | IC50 [2, 4] [nM] | Structure (SMILES)
15.7 | 30 | 40.9 | 58.5 | 77 | 0.36 ± 0.01 | 19.9 | 36.7 | 58.4 | 83.4 | 92.3 | 859 | 876 | COc1ccc(Cc2nnc(SCC(=O)Nc3ccccc3)n2-c2ccccc2)cc1 [Compound 3, 2-((5-(4-methoxybenzyl)-4-phenyl-4H-1,2,4-triazol-3-yl)thio)-N-phenylacetamide]
19.9 | 36.6 | 50.9 | 63.6 | 82.4 | 0.27 ± 0.01 | 25.8 | 44.6 | 62.6 | 85.7 | 93.1 | 402 | 419 | COc1ccc(Cc2nnc(SCC(=O)Nc3ccc(C(C)=O)cc3)n2-c2ccccc2)cc1 [Compound 4, N-(4-acetylphenyl)-2-((5-(4-methoxybenzyl)-4-phenyl-4H-1,2,4-triazol-3-yl)thio)acetamide]
1.67 | 4.01 | 7.55 | 28.9 | 69.2 | 0.83 ± 0.03 | 14.4 | 19.9 | 40.6 | 74.1 | 91.3 | 2610 | 2620 | COc1ccc(Cc2nnc(SCC(=O)Nc3ccc(C(=O)O)cc3)n2-c2ccccc2)cc1 [Compound 6, 4-(2-((5-(4-methoxybenzyl)-4-phenyl-4H-1,2,4-triazol-3-yl)thio)acetamido)benzoic acid]
1.46 | 5.94 | 18.4 | 38.9 | 67.3 | 0.67 ± 0.02 | 12 | 29.3 | 41.6 | 63.1 | 88.7 | 2890 | 2890 | CCOC(=O)c1ccc(NC(=O)CSc2nnc(Cc3ccc(OC)cc3)n2-c2ccccc2)cc1 [Compound 8, Ethyl 4-(2-((5-(4-methoxybenzyl)-4-phenyl-4H-1,2,4-triazol-3-yl)thio)acetamido)benzoate]
4.22 | 7.76 | 14 | 31.9 | 68.2 | 0.77 ± 0.02 | 20.6 | 35.3 | 48.3 | 73.3 | 90 | 1410 | 1420 | COc1ccc(Cc2nnc(SCC(=O)Nc3ccc(O)cc3)n2-c2ccccc2)cc1 [Compound 9, N-(4-hydroxyphenyl)-2-((5-(4-methoxybenzyl)-4-phenyl-4H-1,2,4-triazol-3-yl)thio)acetamide]
16.3 | 25.1 | 39.9 | 58 | 82.8 | 0.31 ± 0.01 | 29.2 | 41.2 | 56.1 | 77.6 | 92.3 | 510 | 528 | COc1ccc(Cc2nnc(SCC(=O)Nc3ccc(Br)cc3)n2-c2ccccc2)cc1 [Compound 10, N-(4-bromophenyl)-2-((5-(4-methoxybenzyl)-4-phenyl-4H-1,2,4-triazol-3-yl)thio)acetamide]

Structure (SMILES) | %inh α-glucosidase ([1]; conc 63 (µg/mL)) [%] | %inh α-glucosidase ([1]; conc 125 (µg/mL)) [%] | %inh α-glucosidase ([1]; conc 250 (µg/mL)) [%] | %inh α-glucosidase ([1]; conc 500 (µg/mL)) [%] | %inh α-glucosidase ([1]; conc 1000 (µg/mL)) [%] | α-glucosidase inhibition IC50 [1] [µg/mL] | %inh α-amylase ([2]; conc 0.01 (µg/mL)) [%] | %inh α-amylase ([2]; conc 0.1 (µg/mL)) [%] | %inh α-amylase ([2]; conc 1 (µg/mL)) [%] | %inh α-amylase ([2]; conc 10 (µg/mL)) [%] | %inh α-amylase ([2]; conc 100 (µg/mL)) [%] | IC50 [2, 3] [nM] | IC50 [2, 4] [nM]
C[C@H]1O[C@H](O[C@H]2[C@H](O)[C@@H](O)[C@@H](O[C@H]3[C@H](O)[C@@H](O)C(O)O[C@@H]3CO)O[C@@H]2CO)[C@H](O)[C@@H](O)[C@@H]1N[C@H]1C=C(CO)[C@@H](O)[C@H](O)[C@H]1O (some centres unmarked) [Acarbose, reference compound] | 8.91 | 28 | 40.6 | 58.6 | 76.8 |  |  |  |  |  |  |  | 
